Source: patent publication US20150238601A1, “TREATMENT OF OCULAR DISORDERS” (KADMON CORPORATION, LLC, priority 2012, published 2015)
Where a name gives a salt, the structure may show the parent alone. Read-outs that look alike come from different tables or passages of the source.

Assays:
ROCK1 [1] = biological target: T1, ROCK1 (Homo sapiens, UniProt Q13464); assay: biochemical
Method: Dose response curves for Rho-kinase inhibition were derived from a Millipore immuno-based 96 well plate assay (Millipore catalog number CSA001). Purified active ROCK1 and ROCK2 were obtained from Invitrogen (catalog numbers ROCKI, PV3691 and ROCK2, PV3759). The kit components include assay plates, which are pre-coated with recombinant MYPT1, which contains a specifically phosphorylatable Thr696. The inhibitory activities of compounds are measured according to the manufactures protocol. […] The assay proceeds at 300 Celsius for 30 minutes with gentle shaking at 120 rpm. The assay is terminated by washing of the plate 3 times with Tris-buffered saline and tween wash buffer. Anti-phospho-MYPT1 (Thr696) antibody is added to each well to detect the phosphorylated substrate and incubated for 1 hour at room temperature after which HRP conjugated anti-rabbit IgG secondary is added for 1 hour at room temperature. After washing the assay is developed using a substrate reagent and the absorbance is read at 450 nm on a Tecan Infinite M1000 reflecting the relative remaining ROCK phosphorylation activity.

ROCK2 = biological target: T2, ROCK2 (Homo sapiens, UniProt O75116); assay: Invitrogen Z'-LYTE Kinase Assay; type: biochemical
T2 construct: purchased Invitrogen PV3759
Excerpt: (§2) Dose response curves for Rho-kinase inhibition were derived from a Invitrogen Z′-LYTE™ Kinase Assay Kit (Invitrogen catalog number PV3793). Purified active ROCK1 and ROCK2 were obtained from Invitrogen (catalog numbers ROCK1, PV3691 and ROCK2, PV3759). The kit components include a coumarin and fluorescein labeled peptide based on myosin light chain 2 ([sequence]), a proprietary protease containing development reagent and a proprietary Stop buffer used to terminate the development reaction. The inhibitory activities of compounds are measured according to the manufactures protocol. […] The assay proceeds at room temperature for 1 hour followed by the addition of development reagent, and further incubation for 1 hour at room temperature. […] By comparing the emission ratios of the test samples against control samples, percent phosphorylation values are calculated and the concentration of inhibitor that produces 1/2 inhibition of kinase activity (IC50) is determined using Prism.

[2] = system: subfoveal choroidal neovascularization (CNV) lesion secondary to AMD; assay: study in subjects with subfoveal CNV lesion secondary to AMD; type: in vivo, human; conditions: Example 43 with Mab 106 vs Mab 106, six months
Method: A study is conducted of 50 men and women having subfoveal choroidal neovascularization (CNV) lesion secondary to AMD. […] Subjects are observed over six months to determine intraocular inflammation, macular thickness, and the status of macular perfusion. Visual acuity is also measured over the time period.

ROCK1 [3] = biological target: T1, ROCK1; assay: Invitrogen Z'-LYTE Kinase Assay; type: biochemical; parameters: purchased Invitrogen PV3691; conditions: 5 uM ATP, ROCK1 0.18 ug/mL
Excerpt: as §2

[4] = system: proliferative diabetic retinopathy; assay: preoperative treatment of proliferative diabetic retinopathy / diabetic macular edema; type: in vivo, human; conditions: with pegaptanib, compared to pegaptanib alone, intravitreal, 8 weeks after surgery
Method: The agents are administered by intravitreal injection. Subjects are evaluated over 8 weeks following surgery as to post operative rebleed, macular edema post injection, and pre- and post-injection levels of VEGF165. It is expected that compared to pegaptanib alone, administration of compound 154 results in reduced bleeding and macular edema.

CD4+ human T cells [5] = assay: T cell proliferation in response to TCR stimulation in vitro; type: cell-based
Excerpt: (§1) Activation of resting T cells, resulting in cytokine secretion and proliferation, involves two distinct signals from antigen-presenting cells (APCs), mimicked by co-stimulation of the T cell receptor (TCR)/CD3 complex and the CD28 receptor.

CD4+ human T cells [6] = assay: cytokine secretion of anti-CD3/CD28 stimulated CD4+ T cells in vitro; type: cell-based; conditions: anti-CD3/CD28 stimulation
Excerpt: as §1

STAT3 phosphorylation = STAT3 phosphorylation in T cells; type: cell-based
Method: STAT3 plays a critical role in Th17 differentiation via regulation of RORγt expression and direct binding to the IL-17 and IL-21 promoters. […] In a different experiment, cells we cultured under Th17-skewing conditions for 5 days and then treated with the ROCK2 selective inhibitor for 3 hours.

[7] = system: CD4+ T cells from peripheral blood of RA patients; assay: CD4+ T cells of RA patients stimulated with anti-CD3/CD28 ex vivo; type: cell-based, human
[8] = Z'-LYTE, 12 uM ATP, ROCK2 0.8 ug/mL, read-out: ROCK2 IC50
[9] = 2 RA patients, intracellular staining
[10] = RA patients, ex vivo, TCR stimulation

T1 sequence (Q13464 whole entry): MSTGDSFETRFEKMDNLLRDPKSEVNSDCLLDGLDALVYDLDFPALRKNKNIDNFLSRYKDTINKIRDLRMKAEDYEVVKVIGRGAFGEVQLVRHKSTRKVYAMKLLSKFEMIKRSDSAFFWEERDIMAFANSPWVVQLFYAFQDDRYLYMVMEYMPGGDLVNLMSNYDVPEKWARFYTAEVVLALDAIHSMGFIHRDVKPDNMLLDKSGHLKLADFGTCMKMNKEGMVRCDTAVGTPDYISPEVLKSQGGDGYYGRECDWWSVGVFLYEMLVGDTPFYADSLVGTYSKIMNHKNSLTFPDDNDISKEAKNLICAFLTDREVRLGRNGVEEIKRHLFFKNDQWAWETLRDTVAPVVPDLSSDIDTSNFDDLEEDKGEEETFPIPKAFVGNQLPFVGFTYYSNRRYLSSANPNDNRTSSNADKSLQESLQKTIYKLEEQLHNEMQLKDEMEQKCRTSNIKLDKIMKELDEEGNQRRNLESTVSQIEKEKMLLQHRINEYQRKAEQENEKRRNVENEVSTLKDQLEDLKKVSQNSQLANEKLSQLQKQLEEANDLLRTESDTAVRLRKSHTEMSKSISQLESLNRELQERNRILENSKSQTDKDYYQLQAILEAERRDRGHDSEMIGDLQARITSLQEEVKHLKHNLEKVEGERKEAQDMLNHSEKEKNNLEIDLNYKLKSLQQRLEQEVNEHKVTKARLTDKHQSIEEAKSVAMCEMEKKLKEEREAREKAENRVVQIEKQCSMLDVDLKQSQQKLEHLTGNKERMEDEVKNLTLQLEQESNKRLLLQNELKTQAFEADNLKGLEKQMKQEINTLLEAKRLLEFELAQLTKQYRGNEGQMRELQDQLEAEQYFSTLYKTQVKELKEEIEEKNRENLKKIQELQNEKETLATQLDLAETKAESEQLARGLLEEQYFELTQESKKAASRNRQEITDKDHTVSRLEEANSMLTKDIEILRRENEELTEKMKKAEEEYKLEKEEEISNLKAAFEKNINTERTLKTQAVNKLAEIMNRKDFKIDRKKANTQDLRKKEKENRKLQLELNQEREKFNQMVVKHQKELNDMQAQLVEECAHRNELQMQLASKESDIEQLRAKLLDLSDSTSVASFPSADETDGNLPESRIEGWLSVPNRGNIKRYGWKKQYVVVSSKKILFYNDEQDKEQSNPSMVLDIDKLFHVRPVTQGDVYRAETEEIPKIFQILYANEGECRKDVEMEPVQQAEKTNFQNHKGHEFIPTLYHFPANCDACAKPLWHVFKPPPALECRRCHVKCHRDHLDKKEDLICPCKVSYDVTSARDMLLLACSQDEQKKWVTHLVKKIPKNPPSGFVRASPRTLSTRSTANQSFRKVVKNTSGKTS
T2 sequence (O75116 whole entry): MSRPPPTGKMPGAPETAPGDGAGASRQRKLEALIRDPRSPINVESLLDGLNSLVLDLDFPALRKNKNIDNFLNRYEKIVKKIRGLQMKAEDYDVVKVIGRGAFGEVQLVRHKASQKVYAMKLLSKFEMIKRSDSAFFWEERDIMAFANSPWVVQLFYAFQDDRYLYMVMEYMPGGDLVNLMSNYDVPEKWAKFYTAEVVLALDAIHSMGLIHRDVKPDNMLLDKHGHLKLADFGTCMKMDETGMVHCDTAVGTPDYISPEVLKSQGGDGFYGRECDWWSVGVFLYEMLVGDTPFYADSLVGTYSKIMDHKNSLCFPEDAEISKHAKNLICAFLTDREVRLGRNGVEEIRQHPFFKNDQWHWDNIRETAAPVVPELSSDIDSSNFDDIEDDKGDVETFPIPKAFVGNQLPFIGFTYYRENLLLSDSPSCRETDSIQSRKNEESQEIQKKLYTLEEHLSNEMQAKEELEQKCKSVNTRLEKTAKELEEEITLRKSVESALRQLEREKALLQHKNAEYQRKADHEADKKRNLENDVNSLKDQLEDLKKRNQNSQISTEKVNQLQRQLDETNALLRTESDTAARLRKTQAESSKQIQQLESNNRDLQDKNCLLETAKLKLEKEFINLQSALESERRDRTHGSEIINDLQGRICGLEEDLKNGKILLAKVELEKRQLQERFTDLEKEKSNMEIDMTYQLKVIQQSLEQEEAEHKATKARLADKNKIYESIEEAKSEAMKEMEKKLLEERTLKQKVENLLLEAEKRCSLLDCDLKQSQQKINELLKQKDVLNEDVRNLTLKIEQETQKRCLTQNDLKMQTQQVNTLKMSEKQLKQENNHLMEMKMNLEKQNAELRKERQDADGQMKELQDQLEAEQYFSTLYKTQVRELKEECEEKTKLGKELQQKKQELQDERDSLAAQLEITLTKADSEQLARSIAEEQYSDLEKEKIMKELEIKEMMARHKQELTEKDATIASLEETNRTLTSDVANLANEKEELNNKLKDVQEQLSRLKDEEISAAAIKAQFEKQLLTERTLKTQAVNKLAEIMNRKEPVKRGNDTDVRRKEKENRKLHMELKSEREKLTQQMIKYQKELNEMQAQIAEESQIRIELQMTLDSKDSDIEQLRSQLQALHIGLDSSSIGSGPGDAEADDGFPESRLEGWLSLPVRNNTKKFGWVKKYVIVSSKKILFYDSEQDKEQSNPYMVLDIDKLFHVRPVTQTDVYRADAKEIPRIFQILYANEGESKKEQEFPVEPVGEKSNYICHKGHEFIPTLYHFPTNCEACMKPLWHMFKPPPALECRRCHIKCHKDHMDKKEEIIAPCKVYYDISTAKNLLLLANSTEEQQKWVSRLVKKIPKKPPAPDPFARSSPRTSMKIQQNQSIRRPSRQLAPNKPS

Q: What does the source list for `O=C(COc1cccc(-c2nccc(Nc3ccc4[nH]ncc4c3)n2)c1)N[C@@H]1CCNC1` [Example 12, (R)-2-(3-(4-((1H-indazol-5-yl)amino)pyrimidin-2-yl)phenoxy)-N-(pyrrolidin-3-yl)acetamide HCl salt]?
A: IC50 (ROCK1 [1]): 1770 nM; Ki (ROCK1 [1]): 70 nM

Q: `CC(C)NC(=O)COc1cccc(-c2ncc(OCCN(C)C)c(Nc3ccc4[nH]ncc4c3)n2)c1` [Example 43, 2-(3-(4-((1H-indazol-5-yl)amino)-5-(2-(dimethylamino)ethoxy)pyrimidin-2-yl)phenoxy)-N-isopropylacetamide TFA salt] was tested. Which IC50 (ROCK2; [8]) did it give?
A: 25 nM

Q: And the intraocular inflammation [2]?
A: less

Q: What about the macular perfusion [2] of the same molecule?
A: less

Q: And the IC50 (ROCK1 [3])?
A: 750 nM

Q: With `CC(C)NC(=O)COc1cccc(-c2nc(Nc3ccc4[nH]ncc4c3)cc(N3CCCNCC3)n2)c1` [Example 121, 2-(3-(4-((1H-indazol-5-yl)amino)-6-(1,4-diazepan-1-yl)pyrimidin-2-yl)phenoxy)-N-isopropylacetamide] as the molecule, how does the IC50 (ROCK2; [8]) read?
A: 13 nM

Q: What about the IC50 (ROCK1 [3]) of the same molecule?
A: 1390 nM

Q: What does the source list for `O=C(Oc1cccc(-c2nccc(Nc3ccc4[nH]ncc4c3)n2)c1)N1CCOCC1` [Example 129, 3-(4-((1H-indazol-5-yl)amino)pyrimidin-2-yl)phenyl morpholine-4-carboxylate]?
A: IC50 (ROCK2; [8]): 10 nM; IC50 (ROCK1 [3]): 1100 nM

Q: `CN(C)C(=O)Oc1cccc(-c2nccc(Nc3ccc4[nH]ncc4c3)n2)c1` [Example 131, 3-(4-((1H-indazol-5-yl)amino)pyrimidin-2-yl)phenyl dimethylcarbamate] was tested. Which IC50 (ROCK2) did it give?
A: 39 nM

Q: Which IC50 (ROCK1 [3]) does the source give for `c1cc(OCc2ccncc2)cc(-c2nccc(Nc3ccc4[nH]ncc4c3)n2)c1` [Example 136, N-(2-(3-(pyridin-4-ylmethoxy)phenyl)pyrimidin-4-yl)-1H-indazol-5-amine] here?
A: 170 nM

Q: `COCCOc1cccc(-c2nccc(Nc3ccc4[nH]ncc4c3)n2)c1` [Example 138, N-(2-(3-(2-methoxyethoxyl)phenyl)pyrimidin-4-yl)-1H-indazol-5-amine] was tested. Which IC50 (ROCK2; [8]) did it give?
A: 8 nM

Q: And the IC50 (ROCK1 [3])?
A: 1980 nM

Q: With `COc1cccc(-c2nccc(Nc3ccc4[nH]ncc4c3)n2)c1` [Example 140, N-(2-(3-methoxyphenyl)pyrimidin-4-yl)-1H-indazol-5-amine] as the molecule, how does the IC50 (ROCK2; [8]) read?
A: 55 nM

Q: What about the IC50 (ROCK1 [3]) of the same molecule?
A: 1910 nM

Q: How did the IC50 (ROCK2; [8]) turn out when `c1cc(OCCN2CCOCC2)cc(-c2nccc(Nc3ccc4[nH]ncc4c3)n2)c1` [Example 144, N-(2-(3-(2-morpholinoethoxyl)phenyl)pyrimidin-4-yl)-1H-indazol-5-amine] was run?
A: 58 nM

Q: What about the IC50 (ROCK1 [3]) of the same molecule?
A: 1930 nM

Q: With `CC(N)c1cccc(-c2nccc(Nc3ccc4[nH]ncc4c3)n2)c1` (centres unmarked) [Example 147, N-(2-(3-(1-aminoethyl)phenyl)pyrimidin-4-yl)-1H-indazol-5-amine] as the molecule, how does the IC50 (ROCK2; [8]) read?
A: > 5500 nM

Q: What about the IC50 (ROCK1 [3]) of the same molecule?
A: > 2000 nM

Q: Which results are given for `CC(C)NCCOc1cccc(-c2nccc(Nc3ccc4[nH]ncc4c3)n2)c1` [Example 154, N-(2-(3-(2-(isopropylamino)ethoxy)phenyl)pyrimidin-4-yl)-1H-indazol-5-amine]?
A: bleeding (post operative rebleed) [4]: reduced; macular edema [4]: reduced

Q: `CC(C)NC(=O)COc1cccc(-c2nc(Nc3ccc4[nH]ncc4c3)cc(C(F)(F)F)n2)c1` [Example 169] was tested. Which IC50 (ROCK2; [8]) did it give?
A: > 10000 nM

Q: What about the IC50 (ROCK1 [3]) of the same molecule?
A: > 10000 nM

Q: Which “ability of T cells to proliferate in response to TCR stimulation” value (CD4+ human T cells [5]) does the source give for `CC(C)NC(=O)COc1cccc(-c2nc(Nc3ccc4[nH]ncc4c3)c3ccccc3n2)c1` [SLx-2119] here?
A: down-regulated

Q: What about the IL-17 secretion (CD4+ human T cells [6]; dose-dependent) of the same molecule?
A: significantly inhibited

Q: And the IL-21 secretion (CD4+ human T cells [6]; dose-dependent)?
A: significantly inhibited

Q: And the “inhibition of IFN-γ secretion” value (CD4+ human T cells [6]; high dose 10 μM)?
A: less robust and significant only at high dose

Q: What about the “phosphorylation of STAT3” value (STAT3 phosphorylation; T cells pre-treated, then stimulated with anti-CD3/CD28 antibodies) of the same molecule?
A: reduced

Q: And the STAT3 phosphorylation (STAT3 phosphorylation; Th17-skewing conditions 5 days, then treated 3 hours)?
A: reduced

Q: What about the “frequency of IFN-γ-producing cells” value [7, 9] of the same molecule?
A: significantly reduced

Q: What about the “frequency of IL-17-producing cells” value [7, 9] of the same molecule?
A: significantly reduced

Q: What about the IFN-γ secretion [7, 10] of the same molecule?
A: significantly down-regulated

Q: What about the IL-17 secretion [7, 10] of the same molecule?
A: significantly down-regulated

Q: What about the IL-21 secretion [7, 10] of the same molecule?
A: significantly down-regulated
